Measurements taken from US9636323B2, “Method of treating cancer that overexpresses TopBP1” (Baylor College of Medicine, priority 2014, dated 2017).

Columns and labels:
MDA-MB468 xenografts = assay: MDA-MB468 xenograft model; assay type: in vivo, nude mice
Method: Female nu/nu mice (4-5 weeks old) were purchased from Charles River Laboratories (Cambridge, Mass.). The animals were cared for and maintained by the Animal Care and Use Committee of Baylor College of Medicine. Freshly grown MDA-MB468 breast cancer cells [(8×10^6) cells per site in 100 μl phosphate-buffered saline (PBS)] were injected subcutaneously into the right side of the flank of the 5-6 weeks old mice. When tumors were measurable, the mice were randomly divided into treatment and control groups. […] The control group mice were injected with vehicle (DMSO) in the same way. The mice were monitored thrice per week. The weight of the mice and tumor size were measured on the indicated day with a caliper and calculated based on the formula π/6 (length×depth×width). The evaluator was blinded to the group allocation during monitoring. Animals were sacrificed in the indicated dates, and tumors were harvested, weighed, and further processed for histopathological analysis. All experiments were performed under a Baylor College of Medicine Institutional Animal Care and Use Committee (IACUC)-approved protocol and all experiments confirm to IACUC standards and ethical regulations.
Next day the samples were sent to The Pathology and Histology Core of Baylor College of Medicine for further processing. The paraffin-embedded sections were stained with H&E, Ki-67, TUNEL and anti-cleaved caspase-3 using standard operating protocols.

[1] = test system: SKOV-3 ovarian cancer cells; assay: MTS assay, SKOV-3; assay type: cell-based, human
Method: Then 50 μl of MTS reagent (CellTiter 96® AQueous One Solution Cell Proliferation Assay, Promega) was added to each well, covered from light and incubated for 1 h at 37.0 incubator to develop purple color. The samples were measured at 490 nm in a plate reader (BioTek Synergy HT) against a blank 48-well plate. Each assay was done in triplicate.

[2] = target: T1, TopBP1/mutp53 (R249S) interaction (Homo sapiens, UniProt Q92547); assay: Co-immunoprecipitation in BT549 cells, TopBP1/mutp53; assay type: cell-based; conditions: 2.5 μM
T1 construct: endogenous in cells; host or cells: BT549

[3] = test system: primary leukemia cells from a patient with T cell acute lymphoblastic leukemia; assay: Caspase 3/7 activation assay, primary leukemia cells; assay type: cell-based; conditions: 2.5 μM, 7 hours
Method: (§1) The apoptosis was measured by Caspase-Glo® 3/7 assay (Promega) following the manufacturer's protocol. The cells were plated in 6-well tissue culture dish (10^4 cells/well) (BD Falcon) in respective media. […] The blank reactions were prepared per direction. Equal volume of Caspase-Glo® 3/7 reagents were applied to each well. A luminometer (Sirius) was used to quantitate luminescence.

[4] = test system: E2F1 transcriptional activity; assay: E2F1 activity reporter assay (p14Arf promoter dual luciferase) in HEK293 cells; assay type: cell-based, human
Method: (§2) E2F1 activity reporter assay using a p14^ARF promoter-luciferase plasmid was performed as described (Liu et al. 2003). p53 activity reporter assay was performed by a p21^Cip promoter-luciferase plasmid (Liu et al. 2009). p73 activity reporter assay was performed using a pGL3-Bax promoter-luciferase plasmid (Liu et al. 2011). pRL-TK (Renilla luciferase, Promega) was used in all experiments for controlling transfection efficiency. The firefly and Renilla luciferase activities were measured by Dual-Luciferase Reporter System (Promega), and the firefly luciferase activities were normalized against the Renilla activity. All assays were performed in triplicate.

MDA-MB468 = assay: DNA damage signals (pS15-p53, γ-H2AX) in MDA-MB468; assay type: cell-based, human; conditions: up to 10 μM
Method: (§3) MDA-MB468 cells were lysed with TNN buffer (Liu et al. 2003). An aliquot of cell lysates was lysed with SDS lysis buffer and the rest of cell lysates were incubated with appropriate antibodies or beads at 4° C. for 3-12 h. Anti-FLAG beads (Sigma) were washed three times with TNN buffer. Immunoprecipitates were fractionated by SDS-PAGE and electro-transferred to Immobilon-P membrane (Millipore). Equal amount of protein loading was validated with Ponceau-S staining. The specific signals were detected by incubating with appropriate antibody. All primary antibodies were used at 1:1000 dilution and horseradish peroxidase (HRP)-conjugated secondary antibodies were used at 1:5000 dilution for immunoblotting. E2F1 (C-20 and KH-95), p53 (FL393), p63 (4A4 and H-129), p73 (H-79), p21 (C-19), Bax (N-20), GST (B-14), c-Myc (A14), Miz1 (H-190), Chk1 (G4), Actin (C-2) and GAPDH (6C5) antibodies were purchased from Santa Cruz. TopBP1 (mouse monoclonal) and Aid antibodies were purchased from BD Transduction Laboratories. TopBP1 (BL893, Rabbit polyclonal) antibody was purchased from Bethyl. Mouse monoclonal anti-phospho-γH2AX was purchased from Millipore. Phospho-Chk1 (Ser345) antibody was purchased from Cell signaling. FLAG (F7425) antibody was purchased from Sigma. Mouse monoclonal anti-p73 (IMG-246) was purchased from IMGENEX.

[5] = test system: p53 transcriptional activity; assay: p53 activity reporter assay (p21 promoter dual luciferase) in H1299 cells; assay type: cell-based, human
Method: as §2

SKOV-3 cells = assay: Caspase-Glo 3/7 assay, SKOV-3 transfected with mutp53(R273H); assay type: cell-based, human; conditions: cisplatin 20 μM with Calcein AM 5 μM, 20 h
Method: as §1

TopBP1 oligomerization [6] = target: T2, TopBP1 oligomerization (Homo sapiens, UniProt Q92547); assay: TopBP1 oligomerization in MDA-MB468 cells (co-IP of tagged TopBP1, DMP cross-linking); assay type: cell-based; conditions: 2.5 μM, 5 h
T2 construct: endogenous in cells; host or cells: MDA-MB468
Method: as §3, with “IMGENEX. […]” for “IMGENEX.”

TopBP1 oligomerization [7] = assay: as above; assay type: cell-based, human; conditions: 2.5 μM, 5 h
Method: as §3, with “IMGENEX. […]” for “IMGENEX.”

MDA-MB231 cells = assay: Caspase 3/7 activity assay, MDA-MB231; assay type: cell-based, human; conditions: 2.5 μM overnight
Method: as §1

[8] = test system: U-87 MG glioblastoma multiforme cells; assay: Caspase 3/7 activation assay, U-87 MG; assay type: cell-based; conditions: 2.5 or 5 μM, 16 hours
Method: as §1

mutp53/p73 interaction = assay: Anti-p73 immunoprecipitation in MDA-MB468 cells; assay type: cell-based, human; conditions: 2.5 μM, 5 h
Method: as §3

mice = conditions: cited from earlier work
[9] = 40 mg/kg i.p. every three days for three doses

T2 sequence (Q92547 whole entry): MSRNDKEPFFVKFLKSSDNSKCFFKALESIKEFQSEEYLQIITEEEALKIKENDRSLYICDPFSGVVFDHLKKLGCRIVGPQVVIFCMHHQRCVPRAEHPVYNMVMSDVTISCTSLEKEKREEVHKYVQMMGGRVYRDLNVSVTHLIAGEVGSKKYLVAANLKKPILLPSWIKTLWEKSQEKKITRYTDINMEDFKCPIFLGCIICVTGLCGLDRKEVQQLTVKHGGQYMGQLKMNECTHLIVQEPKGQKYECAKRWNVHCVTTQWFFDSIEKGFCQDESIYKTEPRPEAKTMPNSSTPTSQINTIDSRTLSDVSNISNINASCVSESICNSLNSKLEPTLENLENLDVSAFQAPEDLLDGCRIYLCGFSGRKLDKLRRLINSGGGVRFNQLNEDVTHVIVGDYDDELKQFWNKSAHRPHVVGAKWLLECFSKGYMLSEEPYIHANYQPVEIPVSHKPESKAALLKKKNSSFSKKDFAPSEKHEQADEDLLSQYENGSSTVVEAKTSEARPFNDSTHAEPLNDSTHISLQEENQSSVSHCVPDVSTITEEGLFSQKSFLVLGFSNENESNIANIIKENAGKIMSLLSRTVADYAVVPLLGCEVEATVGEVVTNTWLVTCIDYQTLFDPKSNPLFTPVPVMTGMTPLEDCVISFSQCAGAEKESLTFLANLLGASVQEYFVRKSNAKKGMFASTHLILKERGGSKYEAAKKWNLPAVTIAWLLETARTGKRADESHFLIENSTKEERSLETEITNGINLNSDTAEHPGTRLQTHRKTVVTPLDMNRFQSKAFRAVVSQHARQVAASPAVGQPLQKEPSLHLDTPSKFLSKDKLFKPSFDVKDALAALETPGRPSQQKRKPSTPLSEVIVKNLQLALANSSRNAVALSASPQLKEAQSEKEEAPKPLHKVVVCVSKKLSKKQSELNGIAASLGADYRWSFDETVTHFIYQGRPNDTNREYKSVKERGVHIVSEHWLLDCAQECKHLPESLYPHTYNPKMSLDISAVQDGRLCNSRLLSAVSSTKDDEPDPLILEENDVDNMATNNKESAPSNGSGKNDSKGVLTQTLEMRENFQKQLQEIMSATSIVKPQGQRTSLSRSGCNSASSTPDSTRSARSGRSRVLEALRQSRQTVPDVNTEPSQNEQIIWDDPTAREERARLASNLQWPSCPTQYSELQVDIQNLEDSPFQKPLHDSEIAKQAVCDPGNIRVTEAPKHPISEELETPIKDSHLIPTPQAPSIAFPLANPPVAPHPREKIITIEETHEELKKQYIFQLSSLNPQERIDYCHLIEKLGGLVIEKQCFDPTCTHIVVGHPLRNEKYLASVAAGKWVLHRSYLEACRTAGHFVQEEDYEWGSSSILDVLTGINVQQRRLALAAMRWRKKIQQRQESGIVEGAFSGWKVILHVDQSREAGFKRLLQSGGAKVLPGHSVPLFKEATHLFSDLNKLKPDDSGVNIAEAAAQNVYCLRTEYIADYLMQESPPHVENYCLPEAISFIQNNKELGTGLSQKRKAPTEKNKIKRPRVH
T1 sequence (Q92547 whole entry, stated change not applied): as the sequence (Q92547 whole entry) above

CC(=O)OCOC(=O)CN(CC(=O)OCOC(C)=O)Cc1cc2c(cc1OC(C)=O)Oc1cc(OC(C)=O)c(CN(CC(=O)OCOC(C)=O)CC(=O)OCOC(C)=O)cc1C21OC(=O)c2ccccc21 [Calcein AM, Calcein AM (acetoxymethyl ester)]
body weights of mice (MDA-MB468 xenografts; [9]): without affecting body weights
expression of proliferation marker Ki-67 in xenografts (MDA-MB468 xenografts; [9]): significantly inhibited
xenograft growth (MDA-MB468 xenografts; [9]): significantly inhibited xenograft growth
immunohistochemistry of xenografts (Ki-67, TUNEL, cleaved caspase 3) (MDA-MB468 xenografts; one week after the second injection): inhibition of proliferation and induction of apoptosis
tumor response to second round of treatment (MDA-MB468 xenografts; regrown tumors, second round from day 61): responded to Calcein AM injection again
proliferation (MTS) ([1]; Calcein AM 5 μM in combination with cisplatin 20 μM, 20 h): inhibited the proliferation
proliferation (MTS) ([1]; Calcein AM alone, overnight): inhibited the proliferation
interaction between TopBP1 and mutp53 [2]: inhibited
cell killing (caspase 3/7 activation) [3]: active in killing
E2F1 transcriptional activity [4]: enhanced
DNA damage (pS15-p53 or γ-H2AX signal) (MDA-MB468): did not see evidence of DNA damage
p53 transcriptional activity [5]: enhanced
inhibition of cisplatin-induced apoptosis by overexpressed mutp53(R273H) (SKOV-3 cells): partially rescued
endogenous TopBP1 oligomerization, DMP chemical crosslinking assay (TopBP1 oligomerization [6]): blocked endogenous TopBP1 oligomerization
TopBP1 oligomerization, differentially tagged TopBP1 (TopBP1 oligomerization [7]): inhibit TopBP1 oligomerization
apoptosis (caspase 3/7 activity) (MDA-MB231 cells): induced apoptosis
apoptosis (caspase 3/7 activation) [8]: induced apoptosis
binding of p73 to mutp53 (mutp53/p73 interaction): release of p73 from mutp53
oral LD50 (mice; oral): 17000 mg/kg
percutaneous LD50 (mice; percutaneous): 5000 mg/kg
